Experiments:
[1] = K+ versus Na+; cited from earlier work
[2] = tested on: Ca2+-activated non-selective cation (NSC) channels on the T84 cells; assay: K+ efflux of T84 cells activated with A23187, measured with the GISFET; assay type: cell-based, human; design: dose or concentration left out as unconfirmed; details: T84 cells in normal saline solution
From the text: In Example 2, GISFETs as contemplated by the present invention were fabricated as described in Example 1 and were then used to measure the K^+ efflux of human colonic epithelial cells. FIG. 9 is a schematic illustrating the use of the graphene ion sensitive field effect transistor (GISFET) of the present invention to determine the K^+ efflux from cells.
Specifically, human colonic T84 epithelial cells were used to investigate performance of the GISFET of the present invention. The Ca^2+-activated non-selective cation (NSC) channels on the T84 cells were activated with Ca^2+ ionophore A23187 ([…]), and then the corresponding K^+ efflux was detected and quantified by measuring the extracellular K+ ion concentration.
First, and referring to FIG. 9, cells 150 were plated on 25 millimeter diameter graphene-coated glass coverslips 148 and placed underneath of a specially designed mold 146 in a well plate 144. […]
Referring now to FIG. 10, after about 2 minutes of stabilization of the GISFET 101 in the buffer solution 152 in the well plate 144, the A23187 activating chemical was added to the well plate 144, which caused a consistent increase in current for about 20 minutes thereafter. […] By calculating the K^+ concentration based on the calibration data, the K^+ concentration could then be determined to be about 50 uM. […]

Compound	selectivity to K+ ions over Na+ ions (weaker valinomycin-Na+ complex) [1]	duration of consistent increase in GISFET current after addition [2]	extracellular K+ concentration from K+ efflux after activation ([2]; calculated from GISFET calibration data)
CC(C)[C@@H]1NC(=O)[C@H](C)OC(=O)[C@@H](C(C)C)NC(=O)[C@@H](C(C)C)OC(=O)[C@H](C(C)C)NC(=O)[C@H](C)OC(=O)[C@@H](C(C)C)NC(=O)[C@@H](C(C)C)OC(=O)[C@H](C(C)C)NC(=O)[C@H](C)OC(=O)[C@@H](C(C)C)NC(=O)[C@@H](C(C)C)OC1=O [valinomycin]	10,000 fold		
CNc1ccc2oc(C[C@H]3O[C@@]4(CC[C@H]3C)O[C@H]([C@H](C)C(=O)c3ccc[nH]3)[C@H](C)C[C@H]4C)nc2c1C(=O)O [A23187]		about 20 minutes	about 50 uM
